{"source": "patent US20170239351A1", "about": "“Therapeutic Combinations of a BTK Inhibitor, a PI3K Inhibitor, a JAK-2 Inhibitor, a PD-1 Inhibitor, and/or a PD-L1 Inhibitor” (Acerta Pharma B.V., priority 2014, published 2017)", "key": {"[1]": {"test_system": "expression of activation markers CD69 and CD86", "assay": "In vivo potency: BCR stimulated with IgM, CD69 and CD86 expression by flow cytometry", "conditions": "mice gavaged, 3 h post-dose", "method": "Mice were gavaged at increasing drug concentration and sacrificed at one time point (3 h post-dose). BCR is stimulated with IgM and the expression of activation markers CD69 and CD86 are monitored by flow cytometry to determine EC50's."}, "T helper 17 (Th17) cells": {"test_system": "T helper 17 (Th17) cells", "assay": "Effect on T helper 17 (Th17) cells", "assay_type": "cell-based"}, "ID8 ovarian cancer": {"test_system": "ID8 ovarian cancer", "assay": "ID8 syngeneic orthotropic ovarian cancer murine model", "assay_type": "in vivo, mice", "source_text": "Human ovarian cancer models, including the ID8 syngeneic orthotropic ovarian cancer model and other animal models, are described in Fong and Kakar, J. Ovarian Res. 2009, 2, 12; Greenaway, et al., Gynecol. Oncol. 2008, 108, 385-94; Urzua, et al., Tumour Biol. 2005, 26, 236-44; Janat-Amsbury, et al., Anticancer Res. 2006, 26, 3223-28; Janat-Amsbury, et al., Anticancer Res. 2006, 26, 2785-89. […] The results of the study are shown in FIG. 100, FIG. 101, FIG. 102, FIG. 103, FIG. 104, FIG. 105, FIG. 106, and FIG. 107.\nEach cohort consisted of 12 mice. Every two weeks mice are injected with luciferin, and tumor growth was monitored using the Xenogen system (Caliper Life Sciences, PerkinElmer, Hopkinton, Mass., USA). Tumor size was measured by calculated flux.\nThe experiments were performed as described in Example 7."}, "human platelets": {"test_system": "human platelets", "assay": "GPVI (convulxin-induced) platelet aggregation", "assay_type": "cell-based", "method": "GPVI platelet aggregation was measured for Formula (XVIII) and Formula (XX-A) (ibrutinib). Blood was obtained from untreated humans, and platelets were purified from […] by centrifugation. Cells were resuspended to a final concentration of 350,000/μL in buffer containing 145 mmol/L NaCl, 10 mmol/L HEPES, 0.5 mmol/L Na2HPO4, 5 mmol/L KCl, 2 mmol/L MgCl2, 1 mmol/L CaCl2, and 0.1% glucose, at pH 7.4. Stock solutions of Convulxin (CVX) GPVI were prepared on the day of experimentation and added to platelet suspensions 5 minutes (37° C., 1200 rpm) before the induction of aggregation. Aggregation was assessed with a Chronolog Lumi-Aggregometer (model 540 VS; Chronolog, Havertown, Pa.) and permitted to proceed for 6 minutes after the addition of agonist. The results are reported as maximum percent change in light transmittance from baseline with platelet buffer used as a reference.\nIn FIG. 129, the results of CVX-induced (250 ng/mL) human platelet aggregation results before and 15 minutes after administration of the BTK inhibitors to 6 healthy individuals are shown."}, "[2]": {"assay": "Standard drug metabolism and pharmacokinetics (DMPK) assays", "assay_type": "in vitro ADME"}}}
{"molecule": "CC#CC(=O)N1CCC[C@H]1c1nc(-c2ccc(C(=O)Nc3ccccn3)cc2)c2c(N)nccn12", "note": "[Formula (XVIII), (S)-4-(8-amino-3-(1-(but-2-ynoyl)pyrrolidin-2-yl)imidazo[1,5-a]pyrazin-1-yl)-N-(pyridin-2-yl)benzamide]", "values": [{"measurement": "inhibition of expression of activation markers CD69 and CD86, compared with ibrutinib", "setting": "[1]", "result": "more potent at inhibiting expression of activation makers than ibrutinib"}, {"measurement": "effect on Th17 cells", "setting": "T helper 17 (Th17) cells", "result": "no adverse effect on T helper 17 (Th17) cells"}, {"measurement": "cytolytic CD8^+ T cells", "setting": "ID8 ovarian cancer; 15 mg/kg/BID oral", "result": "increase"}, {"measurement": "immunosuppressive B cells in tumor-bearing mice", "setting": "ID8 ovarian cancer; 15 mg/kg/BID oral", "result": "significant reduction"}, {"measurement": "immunosuppressive tumor associated Tregs", "setting": "ID8 ovarian cancer; 15 mg/kg/BID oral", "result": "significant reduction"}, {"measurement": "ID8 ovarian cancer growth", "setting": "ID8 ovarian cancer; Formula (XVIII) 15 mg/kg BID oral, antibody 150 μg", "result": "impairs ID8 ovarian cancer growth"}, {"measurement": "GPVI platelet aggregation", "setting": "human platelets", "result": "does not"}, {"measurement": "solubility, plasma protein binding and oral bioavailability versus ibrutinib", "setting": "[2]", "result": "greater solubility, less plasma protein binding, and better oral bioavailability than ibrutinib"}]}
